Assay results as given in patent US20130143929A1, “FUNGICIDAL IMIDAZOLES” (EI DU PONT DE NEMOURS AND COMPANY, priority 2010, published 2013).
Marks after values point to notes of the source that are not given here.

What was measured:
Format in all cases: in vivo
[1] = tested on: Puccinia recondite f. sp. tritici (the causal agent of wheat leaf rust); assay: Test A: wheat leaf rust, preventive spray on wheat seedlings, visual disease rating; details: for Test A rating (100 = 100% disease control, 0 = no disease control relative to the controls): wheat leaf rust, preventive spray on wheat seedlings
Source text: (§1) General protocol for preparing test suspensions for Tests A-D: the test compounds were first dissolved in acetone in an amount equal to 3% of the final volume and then suspended at the desired concentration (in ppm) in acetone and purified water (50/50 mix by volume) containing 250 ppm of the surfactant Trem® 014 (polyhydric alcohol esters). The resulting test suspensions were then used in Tests A-D. Spraying a 200 ppm test suspension to the point of run-off on the test plants was the equivalent of a rate of 800 g/ha.
The test suspension was sprayed to the point of run-off on wheat seedlings. The following day the seedlings were inoculated with a spore suspension of Puccinia recondite f. sp. tritici (the causal agent of wheat leaf rust) and incubated in a saturated atmosphere at 20° C. for 24 h, and then moved to a growth chamber at 20° C. for 7 days, after which time visual disease ratings were made.
(§2) Results for Tests A-E are given in Table A. In the Table, a rating of 100 indicates 100% disease control and a rating of 0 indicates no disease control (relative to the controls). A dash (—) indicates no test results. An asterisk “*” next to the rating value indicates a 40 ppm test suspension was used.

[2] = tested on: Blumeria graminis f. sp. tritici (also known as Erysiphe graminis f. sp. tritici, the causal agent of wheat powdery mildew); assay: Test D: wheat powdery mildew, preventive spray on wheat seedlings, visual disease rating; details: for Test D rating (100 = 100% disease control, 0 = no disease control relative to the controls): wheat powdery mildew, preventive spray on wheat seedlings
Source text: as §1
The test suspension was sprayed to the point of run-off on wheat seedlings. The following day the seedlings were inoculated with a spore dust of Blumeria graminis f. sp. tritici, (also known as Erysiphe graminis f. sp. tritici, the causal agent of wheat powdery mildew) and incubated in a growth chamber at 20° C. for 8 days, after which time visual disease ratings were made.
as §2

[3] = tested on: Septoria tritici (the causal agent of wheat leaf blotch); assay: Test B: wheat leaf blotch, preventive spray on wheat seedlings, visual disease rating; details: wheat leaf blotch, preventive spray on wheat seedlings
Source text: as §1
The test suspension was sprayed to the point of run-off on wheat seedlings. The following day the seedlings were inoculated with a spore suspension of Septoria tritici (the causal agent of wheat leaf blotch) and incubated in a saturated atmosphere at 24° C. for 48 h, and then moved to a growth chamber at 20° C. for 19 days, after which time visual disease ratings were made.
as §2

[4] = tested on: Botrytis cinerea (the causal agent of tomato Botrytis); assay: Test C: tomato Botrytis, preventive spray on tomato seedlings, visual disease rating; details: for Test C rating (100 = 100% disease control, 0 = no disease control relative to the controls): tomato Botrytis, preventive spray on tomato seedlings
Source text: as §1
The test suspension was sprayed to the point of run-off on tomato seedlings. The following day the seedlings were inoculated with a spore suspension of Botrytis cinerea (the causal agent of tomato Botrytis) and incubated in a saturated atmosphere at 20° C. for 48 h, and then moved to a growth chamber at 24° C. for 3 days, after which time visual disease ratings were made.
as §2

[5] = no asterisk (standard test suspension concentration, not 40 ppm)
[6] = asterisk: 40 ppm test suspension
[7] = no asterisk: standard test suspension concentration, 100 = 100% disease control, 0 = no control relative to controls

| SMILES | Test A rating (100 = 100% disease control, 0 = no disease control relative to the controls) [1, 5] | Test D rating (100 = 100% disease control, 0 = no disease control relative to the controls) [2, 5] | Test B rating (100 = 100% disease control, 0 = no disease control relative to the controls) [3, 5] | Test C rating (100 = 100% disease control, 0 = no disease control relative to the controls) [4, 5] | Test B rating (100 = 100% disease control, 0 = no disease control relative to the controls) [3, 6] | Test A rating (100 = 100% disease control, 0 = no disease control relative to the controls) [1, 6] | Test D rating (100 = 100% disease control, 0 = no disease control relative to the controls) [2, 6] | Test C rating (100 = 100% disease control, 0 = no disease control relative to the controls) [4, 6] | Test A rating (% disease control, wheat leaf rust) [1, 7] | Test D rating (% disease control, wheat powdery mildew) [2, 7] | Test C rating (% disease control, tomato Botrytis) [4, 7] |
| --- | --- | --- | --- | --- | --- | --- | --- | --- | --- | --- | --- |
| Cc1nc(Cl)n(-c2c(F)cc(F)cc2Cl)c1C(O)c1ccc(F)cc1F (racemic) [compound 8] | 100% | 100% | 100% | 100% | – | – | – | – | – | – | – |
| Cc1nc(Cl)n(-c2c(F)cc(F)cc2Cl)c1C(O)c1ccc(F)cc1Cl (racemic) [compound 9] | 100% | 100% | 100% | 100% | – | – | – | – | – | – | – |
| Cc1nc(Cl)n(-c2ccc(F)cc2Br)c1C(O)c1ccc(Cl)cc1Cl (racemic) [compound 11] | 99% | 0% | 68% | 31% | – | – | – | – | – | – | – |
| Cc1ncn(-c2c(F)cc(F)cc2Cl)c1C(O)c1ccc(F)cc1F (racemic) [compound 12] | 99% | 21% | 100% | 95% | – | – | – | – | – | – | – |
| Cc1cc(F)ccc1C(O)c1c(C)nc(Cl)n1-c1c(F)cc(F)cc1Cl (racemic) [compound 13] | 100% | 100% | – | 99% | 100* % | – | – | – | – | – | – |
| Cc1cc(F)ccc1C(O)c1c(Cl)nc(Cl)n1-c1c(F)cc(F)cc1Cl (racemic) [compound 14] | 100% | 100% | – | 99% | 100* % | – | – | – | – | – | – |
| Cc1cc(F)ccc1C(O)c1c(C)ncn1-c1c(F)cc(F)cc1Cl (racemic) [compound 15] | 0% | 0% | – | 15% | 0* % | – | – | – | – | – | – |
| OC(c1c(F)ccc(Br)c1Cl)c1c(Cl)nc(Cl)n1-c1ccc(F)cc1Cl (racemic) [compound 18] | 100% | 91% | 100% | 100% | – | – | – | – | – | – | – |
| Cc1cc(F)ccc1C(O)c1c(Cl)nc(Cl)n1-c1c(F)cccc1Cl (racemic) [compound 23] | 100% | 100% | 100% | 100% | – | – | – | – | – | – | – |
| Cc1nc(Cl)n(-c2c(F)cccc2F)c1C(O)c1c(F)cccc1F (racemic) [compound 24] | – | – | – | – | 100* % | 100* % | 91* % | 100* % | – | – | – |
| Cc1nc(Cl)n(-c2c(F)cccc2F)c1C(O)c1c(F)ccc(Br)c1F (racemic) [compound 25] | – | – | – | – | 100* % | 99* % | 0* % | 87* % | – | – | – |
| Cc1nc(Cl)n(-c2c(F)cccc2F)c1C(O)c1ccc(F)cc1F (racemic) [compound 26] | – | – | – | – | 100* % | 100* % | 99* % | 100* % | – | – | – |
| Cc1nc(Cl)n(-c2ccc(F)cc2Cl)c1C(O)c1c(F)cc(F)cc1F (racemic) [compound 30] | 100% | 100% | 100% | 100% | – | – | – | – | – | – | – |
| Cc1ncn(-c2ccc(F)cc2Cl)c1C(O)c1ccc(Cl)cc1Cl (racemic) [compound 33] | 100% | – | 100% | 100% | – | – | 0* % | – | – | – | – |
| Cc1nc(Cl)n(-c2ccc(F)cc2Cl)c1C(O)c1c(F)ccc(Br)c1Cl (racemic) [compound 34] | 99% | – | 98% | 99% | – | – | – | – | – | – | – |
| Cc1nc(Cl)n(-c2ccc(F)cc2F)c1C(O)c1ccc(F)cc1Cl (racemic) [compound 35] | 100% | 68% | 100% | 100% | – | – | – | – | – | – | – |
| Cc1nc(Cl)n(-c2ccc(Cl)cc2Cl)c1C(O)c1c(F)cc(Cl)cc1F (racemic) [compound 36] | 99% | 0% | 100% | 98% | – | – | – | – | – | – | – |
| Cc1nc(Cl)n(-c2ccc(Cl)cc2Cl)c1C(O)c1c(F)ccc(Br)c1Cl (racemic) [compound 37] | 98% | 21% | 100% | 91% | – | – | – | – | – | – | – |
| COc1cc(F)c(C(O)c2c(Br)ncn2-c2ccc(F)cc2Cl)c(F)c1 (racemic) [compound 232] | – | – | – | – | 59* % | 100* % | 0* % | – | – | – | – |
| COc1cc(F)c(-n2c(C(O)c3ccc(F)cc3F)cnc2C)c(F)c1 (centres unmarked) [compound 404] | – | – | – | – | – | – | – | – | 98% | 0% | 0% |
